# Data from publication PMC4458377 (Biochemistry, 2014).
# Legend:
# BAZ2B bromodomain [1] = target: T1, BAZ2B bromodomain (Homo sapiens, UniProt Q9UIF8); settings: acetylated lysine alone; cited from earlier work
# T1 sequence (Q9UIF8 1868-1972 isoform Q9UIF8-4): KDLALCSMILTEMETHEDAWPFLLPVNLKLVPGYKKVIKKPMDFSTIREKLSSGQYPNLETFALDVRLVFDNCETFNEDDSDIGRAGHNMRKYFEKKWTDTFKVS
# BAZ2B bromodomain [2] = target: T1, BAZ2B bromodomain; experiment: ITC of H3K14ac peptides binding to BAZ2B bromodomain
molecule,measurement,setting,value
"CC(=O)NCCCC[C@H](N)C(=O)O [Acetylated lysine, N-ε-acetyl lysine]",interaction with BAZ2B bromodomain,BAZ2B bromodomain [1],interact only very weakly
CC(=O)NCCCC[C@H](NC(=O)CNC(=O)CNC(=O)[C@@H](NC(=O)[C@H](CO)NC(C)=O)[C@@H](C)O)C(=O)N[C@@H](C)C(=O)N1CCC[C@H]1C(=O)N[C@@H](CCCNC(=N)N)C(=O)N[C@@H](CCCCN)C(N)=O [Peptide 1],Kd,BAZ2B bromodomain [2],45 ± 3.3 µM
same,reduction in affinity relative to Peptide 4,BAZ2B bromodomain [2]; ITC KD ratio,2 fold
CC(=O)NCCCC[C@H](NC(=O)CNC(=O)CNC(=O)[C@@H](NC(=O)[C@H](CO)NC(=O)[C@H](CCCCN)NC(C)=O)[C@@H](C)O)C(=O)N[C@@H](C)C(=O)N1CCC[C@H]1C(=O)N[C@@H](CCCNC(=N)N)C(=O)N[C@@H](CCCCN)C(=O)N[C@@H](CCC(N)=O)C(N)=O [Peptide 3],Kd,BAZ2B bromodomain [2],15.7 ± 1.1 µM
Ac-KSTGGK(Ac)APRK-NH2 [Peptide 4],Kd,BAZ2B bromodomain [2],21.8 ± 1.4 µM
